Experimental data taken from patent US20060035291A1, “Method of detecting cellular immunity and application thereof to drugs” (priority 2001, published 2006).

System: HLA-A2 restricted antigen peptide-specific T cells (CTL precursors) in PBMCs
Test: IFN-γ production (ELISA) by peptide-stimulated HLA-A2 positive PBMCs in response to peptide-sensitized T2 cells
Assay type: cell-based, human
Parameters: production level of IFN-γ: unit not given here
Conditions: for production level of IFN-γ: average of 4, HIV peptide background subtracted; for IFN-γ production 1st well / IFN-γ production 2nd well / IFN-γ production 3rd well / IFN-γ production 4th well: before vaccination
[1] = HD6, HLA-A2 positive healthy donor
[2] = HD7, HLA-A2 positive healthy donor
[3] = HD8, HLA-A2 positive healthy donor
[4] = HD9, HLA-A2 positive healthy donor
[5] = HD10, HLA-A2 positive healthy donor
[6] = HLA-A2 positive cervical cancer patient, response to HIV-T2 cells subtracted
[7] = HLA-A2 positive prostate cancer patient
[8] = Pt. 11, HLA-A2 positive pancreatic cancer, ELISA sensitivity limit 10 pg/ml
[9] = Pt. 12, HLA-A2 positive pancreatic cancer, ELISA sensitivity limit 10 pg/ml
[10] = Pt. 13, HLA-A2 positive pancreatic cancer, ELISA sensitivity limit 10 pg/ml
[11] = Pt. 14, HLA-A2 positive pancreatic cancer, ELISA sensitivity limit 10 pg/ml
[12] = Pt. 15, HLA-A2 positive pancreatic cancer, ELISA sensitivity limit 10 pg/ml

Row | Sequence | production level of IFN-γ [1] | production level of IFN-γ [2] | production level of IFN-γ [3] | production level of IFN-γ [4] | production level of IFN-γ [5] | IFN-γ production 1st well [6] [pg/well] | IFN-γ production 2nd well [6] [pg/well] | IFN-γ production 3rd well [6] [pg/well] | IFN-γ production 4th well [6] [pg/well] | IFN-γ production 1st well [7] [pg/well] | IFN-γ production 2nd well [7] [pg/well] | IFN-γ production 3rd well [7] [pg/well] | IFN-γ production 4th well [7] [pg/well] | production level of IFN-γ [8] | production level of IFN-γ [9] | production level of IFN-γ [10] | production level of IFN-γ [11] | production level of IFN-γ [12]
1 | GLLFLHTRT [ppMAPkkk294] | 0 | 58 | 0 | 0 | 86 | 133 | <0 | <0 | <0 | <0 | 34 | <0 | <0 | 179 | 170 | 0 | 0 | 0
2 | KLKHYGPGWV [CypB129] | 0 | 0 | 31 | 29 | 6 | – | – | – | – | – | – | – | – | 43 | 0 | 0 | 0 | 0
3 | ALVEFEDVL [HNRPL140] | 967 | 0 | 0 | 0 | 99 | 24 | <0 | 13 | 40 | 16 | <0 | <0 | <0 | 0 | 63 | 0 | 317 | 39
4 | RLAEYQAYI [SART3309] | 0 | 127 | 30 | 25 | 0 | <0 | <0 | 9 | 28 | <0 | <0 | <0 | <0 | 116 | 0 | 19 | 3 | 27
5 | NVLHFFNAPL [HNRPL501] | 0 | 0 | 0 | 0 | 0 | 24 | <0 | <0 | 18 | <0 | 7 | <0 | <0 | 0 | 0 | 14 | 0 | 13
6 | DVWSFGILL [lck422] | 0 | 11 | 23 | 60 | 26 | <0 | <0 | <0 | 8 | 1 | <0 | <0 | <0 | 20 | 81 | 10 | 71 | 0
